Reference: patent publication US20250041429A1, “COMPOUND HAVING BTK PROTEIN DEGRADATION ACTIVITY, AND MEDICAL USES THEREOF” (UBIX THERAPEUTICS, INC., priority 2021, published 2025)

Target: T1, BTK protein (Homo sapiens, UniProt Q06187)
T1 construct: endogenous in cells; host or cells: TMD-8 cells
Assay: Measurement of BTK protein degradation ability in TMD-8 cells (Western blotting)
Assay type: cell-based
Details: harvested after 24 hours; for BTK degradation (%) 1 nM: compound 1 nM; for BTK degradation (%) 10 nM: compound 10 nM; for BTK degradation (%) 100 nM: compound 100 nM
Experimental: TMD-8, RAMOS, or 293T BTK MUT (C481S) cells were treated with the synthesized compounds, and then the amount of BTK protein present in the cells was measured using Western blotting detection. The protocol for the experiment conducted using TMD-8 cells was as follows:
[Culture] TMD-8 cells were resuspended in RPMI1640 MEDIUM (Hyclone, SH30027.01), 10% FBS (Hyclone, SV30207.02), and 1% Penicillin-streptomycin (Welgene, LS 202-02) media, and 1 mL of this suspension was seeded in a 12-well plate at a cell concentration of 1×10^6/mL.
[Compound treatment] The 12-well plate was treated as follows: The 10 mM stock was serially diluted 1/10 with DMSO (3 μL+27 μL DMSO), and cells were treated with compounds at final concentrations of 0.1, 1, 10 μM or 0.0001, 0.001, 0.01, 0.1 μM, and harvested after 24 hours. In the negative control group, DMSO diluted 1/10 was added to the media. (3 μL DMSO+27 μL media)
[Harvest] Each well was pipetted with a 1 mL pipette, collected in a 1.5 mL microtube, and centrifuged (500 g, 5 min, 4° C.). After removing the supernatant, it was washed with PBS and centrifuged again (500 g, 5 min, 4° C.). The supernatant was removed and the pellet was collected.
[Cell lysis and Sample preparation] lysis buffer was prepared as follows: RIPA buffer (Biosesang, RC2038-050-00), 0.5 mM PMSF (SIGMA, P7626) and 1× Protease/Phosphatase Inhibitor (Cell signaling, 5872S) were added at 60-70 μL per well and left on ice for 30 minutes. (Vortexing at 0 and 30 minutes, respectively), followed by sonication (10 seconds pulse, 30 seconds rest, 5 cycles, 70% amplification) and centrifuge (15000 g, 15 min, 4° C.). Only the supernatant was collected and transferred to a new microtube. The samples were diluted by ½ with RIPA buffer in a 96-well plate. 200 μL of the mixture A:B=50:1 of the BCA Protein Assay Kit (iNtRON, 21071) was added each, stayed at 37° C. for 30 minutes, and cooled for 10 minutes. Afterwards, absorbance was measured at 562 nm using BioTek's SYNERGY H1 microplate reader. After making a sample by quantifying the protein using the measured value, it was boiled at 70° C. for 10 minutes. The sample buffer used at this time was a mixture of NuPAGE or Bolt 4× sample buffer (Invitrogen) and each 10× sample reducing agent according to the gel to be used. RIPA buffer was used for protein dilution.
[Western blotting detection method] The same amount of sample was loaded on NuPAGE or Bolt Bis-tris 4-12% gradient gel and run (200 V, 35 minutes). It was transferred to a […] NC membrane using Trans-blot Turbo (BIO-RAD) (1.3 A constant, 25 V limit, 15 minutes). For blocking, skim milk or Intercept Blocking Buffer (LI-COR, 927-60001): 0.1% TBST=1:1 was used at room temperature for 1 hour. Anti BTK Rabbit (1:1,000 in 5% skim milk/0.2% TBST, size: 77 kDa, Cell signaling Technology) was reacted at 4° C. for 16 hours or at room temperature for 2 hours. Anti GAPDH Rabbit (1:10,000 in 5% BSA/0.2% TBST, size: 36 kDa, GENETEX) and Anti β-actin mouse (1:10,000 in 5% BSA/0.2% TBST, RT, size: 43 kDa, GENETEX) were reacted at room temperature for 1 hour or 3 hours. The samples were washed 3 times with 0.5% TBST for 5 minutes each. Secondary antibodies, Anti-Rabbit IgG (1:5,000 in 5% Skim milk/TBST, CST), IRDye® 800CW Goat anti-Rabbit IgG Secondary Antibody (1:10,000 in 5% skim/TBST, RT 45 min), IRDye® 680RD Goat anti-Mouse IgG Secondary Antibody (1:10,000 in 5% skim/TBST, RT 45 min) were added depending on each sample and reacted for 45 minutes on a rocker at room temperature. The samples were washed 5 times with 0.5% TBST for 5 minutes each and detected with LI-COR's Odyssey. At this time, BTK was detected using SuperSignal West Pico PLUS Chemiluminescent Substrate or SuperSignal West femto Maximum Sensitivity Substrate, and house-keeping genes were detected as is.

T1 sequence (Q06187 whole entry): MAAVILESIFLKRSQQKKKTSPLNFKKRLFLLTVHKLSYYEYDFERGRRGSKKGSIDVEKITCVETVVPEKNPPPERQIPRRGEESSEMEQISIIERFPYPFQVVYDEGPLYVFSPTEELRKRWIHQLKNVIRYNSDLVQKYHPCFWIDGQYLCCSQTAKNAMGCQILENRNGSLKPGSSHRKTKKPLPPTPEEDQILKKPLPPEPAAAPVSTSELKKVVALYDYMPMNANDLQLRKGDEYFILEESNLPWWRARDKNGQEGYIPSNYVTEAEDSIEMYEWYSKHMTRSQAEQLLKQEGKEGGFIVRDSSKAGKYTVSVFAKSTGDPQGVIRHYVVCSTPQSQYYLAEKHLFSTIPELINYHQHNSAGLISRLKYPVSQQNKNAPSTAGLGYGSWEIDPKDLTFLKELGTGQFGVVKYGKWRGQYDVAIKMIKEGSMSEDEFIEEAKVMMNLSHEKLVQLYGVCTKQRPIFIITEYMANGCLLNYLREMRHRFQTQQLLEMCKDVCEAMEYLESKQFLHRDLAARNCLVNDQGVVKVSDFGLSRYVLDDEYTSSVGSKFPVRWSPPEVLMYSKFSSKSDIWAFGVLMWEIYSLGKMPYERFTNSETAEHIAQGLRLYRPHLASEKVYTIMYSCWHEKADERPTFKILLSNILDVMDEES

| SMILES | BTK degradation (%) 1 nM | BTK degradation (%) 10 nM | BTK degradation (%) 100 nM |
| --- | --- | --- | --- |
| Cc1cc(-c2ccnc(Nc3ccc(N4CCN(CC5(C)CN(c6ccc7c(c6)C(=O)N(C6CCC(=O)NC6=O)C7=O)C5)CC4)cc3)n2)ccc1CNC(=O)N1CC(OC(C)C)C1 (stereo not shown) [Example 14, N-(4-(2-((4-(4-((1-(2-(2,6-dioxopiperidin-3-yl)-1,3-dioxoisoindolin-5-yl)-3-methylazetidin-3-yl)methyl)piperazin-1-yl)phenyl)amino)pyrimidin-4-yl)-2-methylbenzyl)-3-isopropoxyazetidine-1-carboxamide] | 20% | 85.5% | 98% |
| Cc1cc(-c2ccnc(Nc3ccc(C4CCN(CC5CCN(c6ccc7c(c6)C(=O)N(C6CCC(=O)NC6=O)C7=O)CC5)CC4)cc3)n2)ccc1CNC(=O)N1CC(OC(C)C)C1 (stereo not shown) [Example 15, N-(4-(2-((4-(1-((1-(2-(2,6-dioxopiperidin-3-yl)-1,3-dioxoisoindolin-5-yl)piperidin-4-yl)methyl)piperidin-4-yl)phenyl)amino)pyrimidin-4-yl)-2-methylbenzyl)-3-isopropoxyazetidine-1-carboxamide] | 56.5% | 95.5% | 99% |
| Cc1cc(-c2ccnc(Nc3ccc(C4CCN(CC5CN(c6ccc7c(c6)C(=O)N(C6CCC(=O)NC6=O)C7=O)C5)CC4)cc3)n2)ccc1CNC(=O)N1CC(OC(C)C)C1 (stereo not shown) [Example 16, N-(4-(2-((4-(1-((1-(2-(2,6-dioxopiperidin-3-yl)-1,3-dioxoisoindolin-5-yl)azetidin-3-yl)methyl)piperidin-4-yl)phenyl)amino)pyrimidin-4-yl)-2-methylbenzyl)-3-isopropoxyazetidine-1-carboxamide] | 59% | 93% | 98.5% |
| Cc1cc(-c2ccnc(Nc3ccc(N4CCN(CC5CCN(c6ccc7c(c6)C(=O)N(C6CCC(=O)NC6=O)C7=O)CC5)CC4)nc3)n2)ccc1CNC(=O)N1CC(OC(C)C)C1 (stereo not shown) [Example 17, N-(4-(2-((6-(4-((1-(2-(2,6-dioxopiperidin-3-yl)-1,3-dioxoisoindolin-5-yl)piperidin-4-yl)methyl)piperazin-1-yl)pyridin-3-yl)amino)pyrimidin-4-yl)-2-methylbenzyl)-3-isopropoxyazetidine-1-carboxamide] | 37% | 91% | 98% |
| Cc1cc(-c2ccnc(Nc3ccc(N4CCN(CC5CN(c6ccc7c(c6)C(=O)N(C6CCC(=O)NC6=O)C7=O)C5)CC4)nc3)n2)ccc1CNC(=O)N1CC(OC(C)C)C1 (stereo not shown) [Example 18, N-(4-(2-((6-(4-((1-(2-(2,6-dioxopiperidin-3-yl)-1,3-dioxoisoindolin-5-yl)azetidin-3-yl)methyl)piperazin-1-yl)pyridin-3-yl)amino)pyrimidin-4-yl)-2-methylbenzyl)-3-isopropoxyazetidine-1-carboxamide] | 46% | 92% | 98.5% |
| Cc1cc(-c2ccnc(Nc3ccc(C4CCN(CC5CN(c6ccc7c(c6)C(=O)N(C6CCC(=O)NC6=O)C7=O)C5)CC4)nc3)n2)ccc1CNC(=O)N1CC(OC(C)C)C1 (stereo not shown) [Example 20, N-(4-(2-((6-(1-((1-(2-(2,6-dioxopiperidin-3-yl)-1,3-dioxoisoindolin-5-yl)azetidin-3-yl)methyl)piperidin-4-yl)pyridin-3-yl)amino)pyrimidin-4-yl)-2-methylbenzyl)-3-isopropoxyazetidine-1-carboxamide] | 49% | 92% | 98.5% |

The remaining lines, values ahead:

| BTK degradation (%) 1 nM | BTK degradation (%) 10 nM | BTK degradation (%) 100 nM | SMILES |
| --- | --- | --- | --- |
| 38% | 91% | 99% | Cc1cc(-c2ccnc(Nc3ccc(N4CCN(CC5CN(c6cc7c(cc6F)C(=O)N(C6CCC(=O)NC6=O)C7=O)C5)CC4)cc3)n2)ccc1CNC(=O)N1CC(OC(C)C)C1 (stereo not shown) [Example 13, N-(4-(2-((4-(4-((1-(2-(2,6-dioxopiperidin-3-yl)-6-fluoro-1,3-dioxoisoindolin-5-yl)azetidin-3-yl)methyl)piperazin-1-yl)phenyl)amino)pyrimidin-4-yl)-2-methylbenzyl)-3-isopropoxyazetidine-1-carboxamide] |
| 48% | 93% | 99% | Cc1cc(-c2ccnc(Nc3ccc(C4CCN(CC5CCN(c6ccc7c(c6)C(=O)N(C6CCC(=O)NC6=O)C7=O)CC5)CC4)nc3)n2)ccc1CNC(=O)N1CC(OC(C)C)C1 (stereo not shown) [Example 19, N-(4-(2-((6-(1-((1-(2-(2,6-dioxopiperidin-3-yl)-1,3-dioxoisoindolin-5-yl)piperidin-4-yl)methyl)piperidin-4-yl)pyridin-3-yl)amino)pyrimidin-4-yl)-2-methylbenzyl)-3-isopropoxyazetidine-1-carboxamide] |
| 70% | 96.5% | 99% | Cc1cc(-c2ccnc(Nc3cnn(C4CCN(CC5CCN(c6ccc7c(c6)C(=O)N(C6CCC(=O)NC6=O)C7=O)CC5)CC4)c3)n2)ccc1CNC(=O)N1CC(OC(C)C)C1 (stereo not shown) [Example 21, N-(4-(2-((1-(1-((1-(2-(2,6-dioxopiperidin-3-yl)-1,3-dioxoisoindolin-5-yl)piperidin-4-yl)methyl)piperidin-4-yl)-1H-pyrazol-4-yl)amino)pyrimidin-4-yl)-2-methylbenzyl)-3-isopropoxyazetidine-1-carboxamide] |
| 75% | 97% | 99% | Cc1cc(-c2ccnc(Nc3cnn(C4CCN(CC5CN(c6ccc7c(c6)C(=O)N(C6CCC(=O)NC6=O)C7=O)C5)CC4)c3)n2)ccc1CNC(=O)N1CC(OC(C)C)C1 (stereo not shown) [Example 22, N-(4-(2-((1-(1-((1-(2-(2,6-dioxopiperidin-3-yl)-1,3-dioxoisoindolin-5-yl)azetidin-3-yl)methyl)piperidin-4-yl)-1H-pyrazol-4-yl)amino)pyrimidin-4-yl)-2-methylbenzyl)-3-isopropoxyazetidine-1-carboxamide] |
| – | 72% | 91.5% | Cc1c(NC(=O)N2CC(OC(C)C)C2)cc(F)cc1-c1ccnc(Nc2ccc(N3CCN(CC4CCN(c5ccc6c(c5)C(=O)N(C5CCC(=O)NC5=O)C6=O)CC4)CC3)cc2)n1 (stereo not shown) [Example 23, N-(3-(2-((4-(4-((1-(2-(2,6-dioxopiperidin-3-yl)-1,3-dioxoisoindolin-5-yl)piperidin-4-yl)methyl)piperazin-1-yl)phenyl)amino)pyrimidin-4-yl)-5-fluoro-2-methylphenyl)-3-isopropoxyazetidine-1-carboxamide] |
| – | 6.5% | 20% | Cc1c(NC(=O)c2cnn(C(C)(C)C)c2)cc(F)cc1-c1ccnc(Nc2ccc(N3CCN(CC4CCN(c5ccc6c(c5)C(=O)N(C5CCC(=O)NC5=O)C6=O)CC4)CC3)cc2)n1 (stereo not shown) [Example 24, 1-(tert-butyl)-N-(3-(2-((4-(4-((1-(2-(2,6-dioxopiperidin-3-yl)-1,3-dioxoisoindolin-5-yl)piperidin-4-yl)methyl)piperazin-1-yl)phenyl)amino)pyrimidin-4-yl)-5-fluoro-2-methylphenyl)-1H-pyrazole-4-carboxamide] |
